We go through nine molecules from patent publication US6500849B1, “1-alkyl-, 1-alkenyl-, and 1-alkynylaryl-2-amino 1,3-propanediols and related compounds” (Aventis Pharmaceuticals Inc., priority 1990, dated 2002).

The structures appear in SMILES notation. Values after ≈ are worked out from the molar mass of the structure shown.

The subject of one assay is Aspergillus Niger. As to the kind of experiment: Antifungal assay (microtitration technique). Type of assay: cell-based. The note with it: 120 h; Aspergillus Niger strain 500/284; 5 days at 30° C. Here is the method:
(§1) The microtiter plate is prepared as follows: The wells are each filled (2 rows/strain) with 50 μl neopeptone-dextrose broth (12-channel pipette). In addition, one row/strain is coated with 50 μl yeast-nitrogen base/well for yeasts and moulds. […] All wells are then inoculated with 150 μl standardized organism suspension (yeasts: 1×10^3 organisms/ml suspension; cutaneous fungi and moulds: 1.6×10^5 organisms/ml suspension); the total volume is 200 μl per well. There is also a growth control (inoculated, not medicated), a solvent control (inoculated, not medicated, containing solvent as in medicated rows) and a negative control (not inoculated, not medicated). Incubation for 5 days at 30° C. is followed by photometric evaluation. The obtained measurements are checked visually (macroscopically and microscopically) and corrected where necessary. Criteria for Evaluation of the Antimycotic Effect a. Photometric measurements (matrix method) b. Growth, macroscopic evaluation c. Growth, microscopic evaluation (inversion light microscope, magn. 64×).

In another assay the test system is Candida Albicans. As to the kind of experiment: Antifungal assay (microtitration technique). The conditions noted are these: 120 h; Candida Albicans strain 200/175; 5 days at 30° C. Type of assay: cell-based. As to the method:
as §1

The next assay concerns Microsporum Canis. Put plainly: Antifungal assay (microtitration technique). Type of assay: cell-based. The note with it: 120 h; Microsporum Canis strain 150/353; 5 days at 30° C. As to the method: as §1
Assay [1] deals with Trichophyton Mentagrophytes. Put plainly: Antifungal assay (microtitration technique). The conditions noted are these: 120 h; Trichophyton Mentagrophytes strain 100/25; 5 days at 30° C. Format: cell-based. As to the method:
as §1

A further assay concerns Trichophyton Rubrum. As to the kind of experiment: Antifungal assay (microtitration technique). Type of assay: cell-based. The conditions noted are these: 120 h; Trichophyton Rubrum strain 101/85; 5 days at 30° C. As to the method: as §1
In a further assay the test system is Trichophyton Vaginalis. As to the kind of experiment: Antifungal assay (microtitration technique). Format: cell-based. The conditions noted are these: 120 h; Trichophyton Vaginalis strain 111/216; 5 days at 30° C. Here is the method:
as §1

The subject of another assay is male CFW mice. As to the kind of experiment: Dark avoidance assay (reversal of scopolamine induced memory deficits). The note with it: sc, scopolamine 3.0 mg/kg sc. Format: in vivo. As to the method:
In this assay, three groups of 15 male CFW mice were used—a vehicle/vehicle control group, a scopolamine/vehicle group, and a scopolamine/drug group. Thirty minutes prior to training, the vehicle/vehicle control group received normal saline subcutaneously, and the scopolamine/vehicle and scopolamine/drug groups received scopolamine subcutaneously (3.0 mg/kg, administered as scopolamine hydrobromide). Five minutes prior to training, the vehicle/vehicle control and scopolamine/vehicle groups received distilled water and the scopolamine/drug group received the test compound in distilled water.
The training/testing apparatus consisted of a plexiglass box approximately 48 cm long, 30 cm high and tapering from 26 cm wide at the top to 3 cm wide at the bottom. The interior of the box was divided equally by a vertical barrier into a light compartment (illuminated by a 25-watt reflector lamp suspended 30 cm from the floor) and a dark compartment (covered). There was a hole at the bottom of the barrier 2.5 cm wide and 6 cm tall and a trap door which could be dropped to prevent an animal from passing between the two compartments. […]
At the end of the pretreatment interval, an animal was placed in the light chamber directly under the light fixture, facing away from the door to the dark chamber. […] The latency is seconds for each mouse was recorded.
The test day latency in seconds for each animal was recorded and the animals were then discarded.
The high degree of variability (due to season of the year, housing conditions, and handling) found in one trial passive avoidance paradigm is well known. To control for this fact, individual cutoff (CO) values were determined for each test, compensating for interest variability. […]
The results of the dark avoidance test are expressed as the number of animals per group (%) in which this scopolamine induced memory deficit is blocked as measured by an increase in the latency period.

The subject of assay [2] is female Swiss Webster mice. As to the kind of experiment: TPA-induced ear edema assay. Type of assay: in vivo. The note with it: 10 μg/ear topical, after about 5 hours. Here is the method:
In the TPA-induced ear edema assay, TPA (12-O-tetradecanoylphorbol-13-acetate) was dissolved in 30/70 propylene glycol/ethanol and was applied to the right ear of groups of 6 female Swiss Webster mice, which were housed together in a cage under standard conditions for 1 week prior to use with food and water ad lib, at a volume of 20 μl so that a total of 10 μg of TPA is delivered to the inner and outer surfaces of the ear. The test compound was dissolved in the vehicle and was applied to the right ear (the inner and outer surface) at a volume of 20 μl so that a total of 10 μg of the compound was delivered to the ear. After about 5 hours, the animals were sacrificed, a 4 mm diameter plug was taken from each ear and weighed. The difference between the right and left ear plug weights for each animal was determined. The antiinflammatory activity of the test compound is expressed as the mean percent change in the ear plug weight of the treated animals compared to the mean percent change in the plug weight of the control animals.

The target of another assay is Protein kinase C. Put plainly: Protein kinase C assay (32P incorporation into Type III histone). Format: biochemical, rat. The note with it: for IC50: rat brain protein kinase C, phosphatidylserine/diacylglycerol stimulated, read-out: Protein Kinase Inhibitory Activity IC50. Here is the method:
(see U. Kikkawa, et al., Biochemical and Biophysical Research Communications, 135, 636 (1986) and R. M. Bell, et al. “Methods in Enzymology, Hormone Action,” Part J, P.M. Conn, Ed., Academic Press, Inc., New York, N.Y. 1986, page 353). Protein kinase C enzyme extract was prepared from the brain of male Wistar rats weighing 180 to 200 g and purified by the method of U. Kikkawa, et al., ibid. 636. The purified extract was stored at −80° C., and aliquots were used in the protein kinase C assay performed by a modification of the method of R. M. Bell, et al., ibid. al 354. To perform the assay, duplicate aliquots of duplicate samples are employed. Basal or unstimulated protein kinase C, phosphatidylserine/diacylglycerol stimulated protein kinase C, and test samples are run in each assay. […] The assay tubes were allowed to warm to 25° C. and an 8 μl mixture of adenosine 5′-triphosphate (100 μM) and ^32P-adenosine triphosphate (1 to 2×10^5 counts per minute) was added to each tube for a final volume of 80 μl per tube. After 2 min, the reaction (the incorporation of phosphorous into Type III histone) was terminated by spotting the assay mixture on phosphocellulose paper. The spots are cut out of the paper and the radioactivity (counts per min) of each spot was determined in a scintillation counter.

Consider `Clc1ccccc1C(c1ccccc1)(c1ccccc1)n1ccnc1` [Clotrimazol, reference compound], for which the MIC in the assay on Aspergillus Niger is 1.95 µg/mL (≈ 5.65 µM); in the assay on Candida Albicans it was 3.9 µg/mL (≈ 11.3 µM); against Microsporum Canis it was 0.06 µg/mL (≈ 0.174 µM); in assay [1] it was 0.97 µg/mL (≈ 2.81 µM); against Trichophyton Rubrum, 0.24 µg/mL (≈ 0.696 µM); in the assay with Trichophyton Vaginalis, 62.5 µg/mL (≈ 181 µM).
Take `Cc1cc(C2CCCCC2)n(O)c(=O)c1` [Cyclopirox, reference compound]: the MIC in the assay on Aspergillus Niger was found to be 0.97 µg/mL (≈ 4.68 µM); against Candida Albicans it was 1.95 µg/mL (≈ 9.41 µM); against Microsporum Canis, 1.95 µg/mL (≈ 9.41 µM); in assay [1] it was 1.95 µg/mL (≈ 9.41 µM); against Trichophyton Rubrum it was 1.95 µg/mL (≈ 9.41 µM); against Trichophyton Vaginalis it was 15.6 µg/mL (≈ 75.4 µM).
As for `CCCCCCCCC#Cc1cccc(C(O)C(NC(C)=O)C(=O)OCC)n1` (stereo not drawn) [Ethyl erythro-2-acetamido-3-[6-(1-Decynyl)-2-pyridinyl]-3-hydroxypropionate], in the assay with male CFW mice (Dose 3.0 mg/kg), the “Percent of Animals with Scopolamine Induced Memory Deficit Reversal” value (“Percent of Animals” for short) was determined as 27%.
Take `CCCCCCCCCCC#Cc1cccc(C(O)C(NC(C)=O)C(=O)OCC)n1` (stereo not drawn) [Ethyl erythro-2-acetamido-3-[6-(1-Dodecynyl)-2-pyridinyl]-3-hydroxypropionate]: the “Antiinflammatory Activity Percent Decrease in Ear Plug Weight at 10 μg/ear” value in [2] is on record as 50%. In addition, the IC50 at Protein kinase C stood at 29 µM.
With `CCCCCCCCCCC=Cc1cccc(C(O)C(CO)NC(C)=O)n1` (stereo not drawn) [cis-erythro-N-{1-[6-(1-Dodecenyl)-2-pyridinyl]-1,3-dihydroxy-2-propanyl}acetamide], the “Protein Kinase Inhibitory Activity, percent inhibition at a single concentration” value in the assay on Protein kinase C (@ 100 μM) was determined as 66% @ 100 μM.
Regarding `CCCCCCCCCCCCc1cccc(C(O)C(N)CO)n1` (stereo not drawn) [erythro-2-Amino-1-(6-Dodecyl-2-pyridinyl)-1,3-propanediol], the “Antiinflammatory Activity Percent Decrease in Ear Plug Weight at 10 μg/ear” value in assay [2] stood at 24%. Also, the IC50 on Protein kinase C was 8.5 µM.
In the case of `CCCCCCCCC#Cc1cccc(C(O)C(CO)NC(C)=O)n1` (stereo not drawn) [erythro-N-{1-[6(1-Decynyl)-2-pyridinyl]-1,3-dihydroxy 2-propanyl}acetamide], the “Percent of Animals” value in the assay on male CFW mice (Dose 3.0 mg/kg) came out at 33%.
On to `CNC(=O)Oc1ccc2c(c1)[C@]1(C)CCN(C)[C@@H]1N2C` [physostigmine, reference compound], for which the “Percent of Animals” value in the assay on male CFW mice (Dose 0.31 mg/kg) stood at 20%.
On to `CCCCCCCCCCc1cccc(C(O)C(N)CO)n1` (stereo not drawn) [threo-2-amino-1-(6-decyl)-2-pyridinyl)-1,3-propanediol] [threo-2-Amino-1-(6-Decyl-2-pyridinyl)-1,3-dihydroxypropane], for which the “Antiinflammatory Activity Percent Decrease in Ear Plug Weight at 10 μg/ear” value in assay [2] was found to be 30%. Moreover, the IC50 at Protein kinase C worked out at 25 µM.

Broadly, the MIC is the smallest concentration in the dilution series that meets the test's criterion for growth inhibition. A higher MIC goes with a need for much substance. Usually IC50 stands for the concentration that inhibits the measured activity by half.
